melting point | Structure (SMILES)
178.9 °C | O=C(NC[C@]1(O)CC[C@H](CCOc2ccccc2F)CC1)c1ccc(O)cc1 [Example 27, N-({trans-4-[2-(2-Fluorophenoxy)ethyl]-1-hydroxycyclohexyl}methyl)-4-hydroxybenzamide]
189.8 °C | O=C(NC[C@H]1CC[C@@H](COc2ccccc2)CC1)c1ccc(O)nc1 [Example 82, 6-Hydroxy-N-{[cis-4-(phenoxymethyl)cyclohexyl]methyl}nicotinamide]
196.6 °C | O=C(NC[C@]1(O)CC[C@@H](Oc2ccc(Cl)cc2)CC1)c1ccc(O)cc1 [Example 32, N-{[cis-4-(4-Chlorophenoxy)-1-hydroxycyclohexyl]methyl}-4-hydroxybenzamide]
153.7 °C | O=C(NC[C@]1(O)CC[C@H](COc2c(F)cccc2F)CC1)c1ccc(O)cc1 [Example 12, N-({trans-4-[(2,6-Difluorophenoxy)methyl]-1-hydroxycyclohexyl}methyl)-4-hydroxybenzamide]
170.5 °C | O=C(NC[C@H]1CC[C@@H](Oc2ccc(F)cc2)CC1)c1ccc(O)cc1 [Example 54, N-{[cis-4-(4-Fluorophenoxy)cyclohexyl]methyl}-4-hydroxybenzamide]
159 °C | O=C(NC[C@]1(O)CC[C@H](COc2ccccc2Cl)CC1)c1ccc(O)cc1 [Example 14, N-({trans-4-[(2-Chlorophenoxy)methyl]-1-hydroxycyclohexyl}methyl)-4-hydroxybenzamide]
177.5 °C | O=C(NC[C@]1(O)CC[C@H](CCOc2ccc(F)cc2)CC1)c1ccc(O)cc1 [Example 29, N-({trans-4-[2-(4-Fluorophenoxy)ethyl]-1-hydroxycyclohexyl}methyl)-4-hydroxybenzamide]
184.7 °C | O=C(NC[C@]1(O)CC[C@H](CCOc2ccccc2F)CC1)c1ccc(O)c(F)c1 [Example 51, 3-Fluoro-N-({trans-4-[2-(2-fluorophenoxy)ethyl]-1-hydroxycyclohexyl}methyl)-4-hydroxybenzamide]
190.3 °C | COc1cccc(OC[C@H]2CC[C@@](O)(CNC(=O)c3ccc(O)cc3)CC2)c1 [Example 20, 4-Hydroxy-N-({trans-1-hydroxy-4-[(3-methoxyphenoxy)methyl]cyclohexyl}methyl)benzamide]
122.1 °C | O=C(NC[C@]1(O)CC[C@H](OCc2ccc(F)cc2)CC1)c1ccc(O)cc1 [Example 47, N-({trans-4-[(4-Fluorobenzyl)oxy]-1-hydroxycyclohexyl}methyl)-4-hydroxybenzamide]
134.5 °C | O=C(NC[C@]1(O)CC[C@H](CCOc2cccc(F)c2)CC1)c1ccc(O)cc1 [Example 28, N-({trans-4-[2-(3-Fluorophenoxy)ethyl]-1-hydroxycyclohexyl}methyl)-4-hydroxybenzamide]
168.7 °C | O=C(NC[C@]1(O)CC[C@H](CCOc2ccccc2)CC1)c1ccc(O)cc1 [Example 26, 4-Hydroxy-N-{[trans-1-hydroxy-4-(2-phenoxyethyl)cyclohexyl]methyl}benzamide]
189.5 °C | O=C(NC[C@]1(O)CC[C@H](COc2ccccc2)CC1)c1ccc(O)cc1 [Example 8, 4-Hydroxy-N-{[trans-1-hydroxy-4-(phenoxymethyl)cyclohexyl]methyl}benzamide]
138.2 °C | O=C(NC[C@]1(O)CC[C@H](OCc2cccc(F)c2)CC1)c1ccc(O)c(F)c1 [Example 49]
164.1 °C | O=C(NC[C@]1(O)CC[C@H](COCc2ccc(Cl)cc2)CC1)c1ccc(O)cc1 [Example 25, N-[(trans-4-{[(4-Chlorobenzyl)oxy]methyl}-1-hydroxycyclohexyl)methyl]-4-hydroxybenzamide]

More lines, now with the values behind:

Structure (SMILES) | melting point
O=C1CCc2cc(C(=O)NC[C@H]3CC[C@@H](Cc4ccccc4)CC3)ccc2N1 [Example 118, N-[(cis-4-Benzylcyclohexyl)methyl]-2-oxo-1,2,3,4-tetrahydroquinoline-6-carboxamide] | 188.5 °C
O=C(NC[C@H]1CC[C@@H](CCOc2ccccc2)CC1)c1cn[nH]c1 [Example 77, N-{[cis-4-(2-Phenoxyethyl)cyclohexyl]methyl}-1H-pyrazole-4-carboxamide] | 155.7 °C
O=C(NC[C@H]1CC[C@@H](COc2ccccc2F)CC1)c1cn[nH]c1 [Example 100, N-({cis-4-[(2-Fluorophenoxy)methyl]cyclohexyl}methyl)-1H-pyrazole-4-carboxamide] | 139.8 °C
O=C(NC[C@H]1CC[C@@H](CCOc2ccccc2)CC1)c1ccc(=O)[nH]n1 [Example 93, 6-Oxo-N-{[cis-4-(2-phenoxyethyl)cyclohexyl]methyl}-1,6-dihydropyridazine-3-carboxamide] | 177.5 °C
O=C(NC[C@H]1CC[C@@H](CCOc2ccccc2)CC1)c1cc[nH]c1 [Example 96, N-{[cis-4-(2-Phenoxyethyl)cyclohexyl]methyl}-1H-pyrrole-3-carboxamide] | 121 °C
O=C(NC[C@H]1CC[C@@H](Oc2ccc(F)cc2)CC1)c1ccc(O)c(F)c1 [Example 55, 3-Fluoro-N-{[cis-4-(4-fluorophenoxy)cyclohexyl]methyl}-4-hydroxybenzamide] | 149.5 °C
O=C(NC[C@H]1CC[C@@H](CCOc2ccccc2)CC1)c1ccn[nH]1 [Example 85, N-{[cis-4-(2-Phenoxyethyl)cyclohexyl]methyl}-1H-pyrazole-5-carboxamide] | 130.5 °C
Nc1n[nH]cc1C(=O)NC[C@H]1CC[C@@H](CCOc2ccccc2)CC1 [Example 102, 3-Amino-N-{[cis-4-(2-phenoxyethyl)cyclohexyl]methyl)-1H-pyrazole-4-carboxamide] | 129.3 °C
O=C(NC[C@H]1CC[C@@H](CCOc2ccccc2)CC1)c1c[nH]nn1 [Example 104, N-{[cis-4-(2-Phenoxyethyl)cyclohexyl]methyl}-1H-1,2,3-triazole-4-carboxamide] | 141.2 °C
O=C(NC[C@H]1CC[C@@H](CCOc2ccccc2)CC1)c1ccc2[nH]ncc2c1 [Example 103, N-{[cis-4-(2-Phenoxyethyl)cyclohexyl]methyl}-1H-indazole-5-carboxamide] | 144.5 °C
O=C(NC[C@H]1CC[C@@H](OCCc2ccccc2)CC1)c1cn[nH]c1 [Example 72, N-{[cis-4-(2-Phenylethoxy)cyclohexyl]methyl}-1H-pyrazole-4-carboxamide] | 145 °C
O=C(NC[C@H]1CC[C@@H](CCOc2ccccc2)CC1)c1ccc2[nH]c(=O)sc2c1 [Example 101, 2-Oxo-N-{[cis-4-(2-phenoxyethyl)cyclohexyl]methyl}-2,3-dihydro-1,3-benzothiazole-6-carboxamid] | 159.9 °C
O=C(NC[C@H]1CC[C@@H](CCOc2ccccc2)CC1)c1ccnc(O)c1 [Example 83, 2-Hydroxy-N-{[cis-4-(2-phenoxyethyl)cyclohexyl]methyl}isonicotinamide] | 199.9 °C
O=C(NC[C@H]1CC[C@@H](COc2ccc(F)cc2)CC1)c1cn[nH]c1 [Example 109, N-({cis-4-[(4-Fluorophenoxy)methyl]cyclohexyl}methyl)-1H-pyrazole-4-carboxamide] | 147.1 °C
O=C(NC[C@H]1CC[C@@H](CCOc2ccccc2)CC1)c1ccc(O)nc1 [Example 84, 6-Hydroxy-N-{[cis-4-(2-phenoxyethyl)cyclohexyl]methyl}nicotinamide] | 167.6 °C
O=C(NC[C@H]1CC[C@@H](Cc2ccccc2)CC1)c1ccc2nc(O)ccc2c1 [Example 122, N-[(cis-4-Benzylcyclohexyl)methyl]-2-hydroxyquinoline-6-carboxamide] | 236.7 °C
O=C(NC[C@H]1CC[C@@H](CCOc2ccccc2)CC1)c1c[nH]cn1 [Example 86, N-{[cis-4-(2-Phenoxyethyl)cyclohexyl]methyl}-1H-imidazole-4-carboxamide] | 169.6 °C
